Test results taken from PubChem BioAssay AID330 (DTP/NCI, 2004).
Values joined by “and” are separate entries in the source; they are usually repeats but may differ in a detail not shown here. Equal values may be shown once. Inconclusive results and toxic doses are left out.

Tested on: P388 leukemia ip, CD2F1 mice, survival T/C
Assay: NCI In Vivo Anticancer Drug Screen. Data for tumor model P388 Leukemia (intraperitoneal) in CD2F1 (CDF1) mice
Details: endpoint: median survival time, higher = longer survival
In short: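 Mice carrying the transplanted tumor received test compound or vehicle. Survival was recorded in each group, and the value is the treated-group measurement divided by that of the vehicle-treated control group.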

[1] = dose: 25.0 mg/kg/injection, schedule: Q01DX009 (ip), vehicle: Klucel (hydroxypropylcellulose) (HPC)
[2] = dose: 50.0 mg/kg/injection, schedule: Q01DX009 (ip), vehicle: Klucel (hydroxypropylcellulose) (HPC)
[3] = dose: 50.0 mg/kg/injection, schedule: Q01DX009 (ip), vehicle: saline
[4] = dose: 100.0 mg/kg/injection, schedule: Q01DX009 (ip), vehicle: Klucel (hydroxypropylcellulose) (HPC)
[5] = dose: 100.0 mg/kg/injection, schedule: Q01DX009 (ip), vehicle: saline
[6] = dose: 60.0 mg/kg/injection, schedule: Q01DX005 (ip), vehicle: saline with Tween-80
[7] = dose: 120.0 mg/kg/injection, schedule: Q01DX005 (ip), vehicle: saline with Tween-80
[8] = dose: 240.0 mg/kg/injection, schedule: Q01DX005 (ip), vehicle: saline with Tween-80
[9] = dose: 50.0 mg/kg/injection, schedule: Q01DX005 (ip), vehicle: saline with Tween-80
[10] = dose: 100.0 mg/kg/injection, schedule: Q01DX005 (ip), vehicle: saline with Tween-80
[11] = dose: 200.0 mg/kg/injection, schedule: Q01DX005 (ip), vehicle: saline with Tween-80
[12] = dose: 50.0 mg/kg/injection, schedule: Q01DX005 (ip), vehicle: saline
[13] = dose: 100.0 mg/kg/injection, schedule: Q04DX003 (ip), vehicle: Klucel (hydroxypropylcellulose) (HPC)
[14] = dose: 200.0 mg/kg/injection, schedule: Q04DX003 (ip), vehicle: Klucel (hydroxypropylcellulose) (HPC)
[15] = dose: 400.0 mg/kg/injection, schedule: Q04DX003 (ip), vehicle: Klucel (hydroxypropylcellulose) (HPC)

## ClC1CCC[N-]C1.ClC1CCC[N-]C1.[Cl][Pt+2][Cl] (centres undefined)
dose: 0.78 mg/kg/injection, schedule: Q01DX009 (ip), vehicle: saline
  T/C: 97 % of control
dose: 1.56 mg/kg/injection, schedule: Q01DX009 (ip), vehicle: saline
  T/C: 97 % of control
dose: 3.13 mg/kg/injection, schedule: Q01DX009 (ip), vehicle: saline
  T/C: 101 % of control
dose: 6.25 mg/kg/injection, schedule: Q01DX009 (ip), vehicle: saline
  T/C: 96 % of control
dose: 12.5 mg/kg/injection, schedule: Q01DX009 (ip), vehicle: Klucel (hydroxypropylcellulose) (HPC)
  T/C: 118 % of control and 123 % of control
dose: 12.5 mg/kg/injection, schedule: Q01DX009 (ip), vehicle: saline
  T/C: 108 % of control
[1]
  T/C: 121 % of control
[2]
  T/C: 101 % of control and 122 % of control

## COc1c(C)cc(C)c(CO)c1-c1c(CO)c(C)cc(C)c1OC
dose: 100.0 mg/kg/injection, schedule: Q01DX001 (ip), vehicle: Klucel (hydroxypropylcellulose) (HPC)
  T/C: 99 % of control
dose: 200.0 mg/kg/injection, schedule: Q01DX001 (ip), vehicle: Klucel (hydroxypropylcellulose) (HPC)
  T/C: 101 % of control
dose: 400.0 mg/kg/injection, schedule: Q01DX001 (ip), vehicle: Klucel (hydroxypropylcellulose) (HPC)
  T/C: 99 % of control

## NC(CSC(c1ccccc1)(c1ccccc1)c1ccc(CO)cc1)C(=O)O (centres undefined)
dose: 12.5 mg/kg/injection, schedule: Q01DX009 (ip), vehicle: saline with Tween-80
  T/C: 118 % of control

## C/C=C(\C)C(=O)OC1CCC2(C)C3CCC4C5(O)CC(O)C6(O)C(CN7CC(C)CCC7C6(C)O)C5(O)CC42OC13O (centres undefined)
dose: 1.56 mg/kg/injection, schedule: Q01DX005 (ip), vehicle: Klucel (hydroxypropylcellulose) (HPC)
  T/C: 98 % of control
dose: 1.56 mg/kg/injection, schedule: Q01DX005 (ip), vehicle: saline
  T/C: 96 % of control
dose: 3.12 mg/kg/injection, schedule: Q01DX005 (ip), vehicle: Klucel (hydroxypropylcellulose) (HPC)
  T/C: 106 % of control
dose: 3.12 mg/kg/injection, schedule: Q01DX005 (ip), vehicle: saline
  T/C: 96 % of control
dose: 6.25 mg/kg/injection, schedule: Q01DX005 (ip), vehicle: Klucel (hydroxypropylcellulose) (HPC)
  T/C: 109 % of control and 91 % of control
dose: 6.25 mg/kg/injection, schedule: Q01DX005 (ip), vehicle: saline
  T/C: 96 % of control

## CCN(CC)CCCC(CCl)Nc1ccnc2cc(Cl)ccc12 (centres undefined)
[2]
  T/C: 113 % of control
[3]
  T/C: 97 % of control
[4]
  T/C: 100 % of control
[5]
  T/C: 100 % of control
dose: 200.0 mg/kg/injection, schedule: Q01DX009 (ip), vehicle: Klucel (hydroxypropylcellulose) (HPC)
  T/C: 98 % of control

## ClC1=C(Cl)C2(Cl)C3C(c4cc(Br)c(Br)cc4C4C3C3(Cl)C(Cl)=C(Cl)C4(Cl)C3(Cl)Cl)C1(Cl)C2(Cl)Cl (centres undefined)
[3]
  T/C: 101 % of control
[5]
  T/C: 106 % of control
dose: 200.0 mg/kg/injection, schedule: Q01DX009 (ip), vehicle: saline
  T/C: 102 % of control

## CC(O)CNc1n[nH]c(=O)c2ccccc12 (centres undefined)
dose: 50.0 mg/kg/injection, schedule: Q01DX009 (ip), vehicle: saline with Tween-80
  T/C: 101 % of control
dose: 100.0 mg/kg/injection, schedule: Q01DX009 (ip), vehicle: saline with Tween-80
  T/C: 104 % of control
dose: 200.0 mg/kg/injection, schedule: Q01DX009 (ip), vehicle: saline with Tween-80
  T/C: 94 % of control

## FC(F)(F)C(F)(F)c1nc2nc(Cl)c(Cl)nc2[nH]1
dose: 50.0 mg/kg/injection, schedule: Q04DX003 (ip), vehicle: other
  T/C: 100 % of control
dose: 100.0 mg/kg/injection, schedule: Q04DX003 (ip), vehicle: other
  T/C: 118 % of control
dose: 200.0 mg/kg/injection, schedule: Q04DX003 (ip), vehicle: other
  T/C: 113 % of control

## CCCN1C(=O)CC(c2ccc(OC)c(OC)c2)C1=O (centres undefined)
[6]
  T/C: 90 % of control
[7]
  T/C: 90 % of control
[8]
  T/C: 90 % of control

## [C-]#[N+]C1CCCCC1.[C-]#[N+]C1CCCCC1.[C-]#[N+]C1CCCCC1.[C-]#[N+]C1CCCCC1.[C-]#[N+]C1CCCCC1.[C-]#[N+]C1CCCCC1.[Mn]
dose: 0.75 mg/kg/injection, schedule: Q01DX009 (ip), vehicle: saline with Tween-80
  T/C: 155 % of control and 159 % of control

## CC(C)OC(=O)NP1(=O)NCc2ccccc2CN1
dose: 50.0 mg/kg/injection, schedule: Q01DX005 (ip), vehicle: Klucel (hydroxypropylcellulose) (HPC)
  T/C: 101 % of control
dose: 100.0 mg/kg/injection, schedule: Q01DX005 (ip), vehicle: Klucel (hydroxypropylcellulose) (HPC)
  T/C: 103 % of control
dose: 200.0 mg/kg/injection, schedule: Q01DX005 (ip), vehicle: Klucel (hydroxypropylcellulose) (HPC)
  T/C: 94 % of control

## CC1(C)CC(=O)NC(=O)N1
[9]
  T/C: 99 % of control
[10]
  T/C: 94 % of control
[11]
  T/C: 104 % of control

## O=NN(Cc1cccnc1)C(=O)NC1CCCCC1
dose: 25.0 mg/kg/injection, schedule: Q01DX001 (ip), vehicle: distilled water + Tween-80
  T/C: 109 % of control
dose: 50.0 mg/kg/injection, schedule: Q01DX001 (ip), vehicle: distilled water + Tween-80
  T/C: 98 % of control
dose: 100.0 mg/kg/injection, schedule: Q01DX001 (ip), vehicle: distilled water + Tween-80
  T/C: 100 % of control

## Cc1cc(C2CCCCC2)n(O)c(=O)c1
dose: 25.0 mg/kg/injection, schedule: Q01DX005 (ip), vehicle: saline
  T/C: 100 % of control
[12]
  T/C: 99 % of control
dose: 100.0 mg/kg/injection, schedule: Q01DX005 (ip), vehicle: saline
  T/C: 106 % of control

## O=C(O)CC1Sc2nc3c(n2C1(O)c1ccccc1)-c1ccccc1CC3 (centres undefined)
[1]
  T/C: 111 % of control
[2]
  T/C: 98 % of control
[4]
  T/C: 100 % of control

## O=C(O)c1cc2oc(-c3ccccc3)cc2[nH]1
[6]
  T/C: 94 % of control
[7]
  T/C: 92 % of control

## Oc1ccc(-c2csc(Nc3ccccn3)n2)cc1O
[9]
  T/C: 98 % of control
[10]
  T/C: 106 % of control
[11]
  T/C: 104 % of control

## Brc1cc(-c2ccccc2)on1
[13]
  T/C: 108 % of control
[14]
  T/C: 103 % of control
[15]
  T/C: 105 % of control

## CCOc1ccc2c(c1)n([O-])c1cc(Cl)ccc1[n+]2=O
dose: 12.5 mg/kg/injection, schedule: Q01DX005 (ip), vehicle: saline with Tween-80
  T/C: 111 % of control
dose: 25.0 mg/kg/injection, schedule: Q01DX005 (ip), vehicle: saline with Tween-80
  T/C: 108 % of control
[9]
  T/C: 103 % of control and 115 % of control
[10]
  T/C: 107 % of control

## CCOC(=N)N1[C@H](C)[C@@H]1C
dose: 12.5 mg/kg/injection, schedule: Q01DX005 (ip), vehicle: Klucel (hydroxypropylcellulose) (HPC)
  T/C: 109 % of control
dose: 25.0 mg/kg/injection, schedule: Q01DX005 (ip), vehicle: Klucel (hydroxypropylcellulose) (HPC)
  T/C: 124 % of control
[12]
  T/C: 86 % of control

## N#CC1(C#N)C(c2ccccc2)C1(C#N)C#N
dose: 6.25 mg/kg/injection, schedule: Q04DX003 (ip), vehicle: saline sonified
  T/C: 115 % of control
dose: 12.5 mg/kg/injection, schedule: Q04DX003 (ip), vehicle: saline sonified
  T/C: 110 % of control
dose: 16.5 mg/kg/injection, schedule: Q04DX003 (ip), vehicle: saline with Tween-80
  T/C: 108 % of control
dose: 25.0 mg/kg/injection, schedule: Q04DX003 (ip), vehicle: saline with Tween-80
  T/C: 112 % of control

## N#CC12CCCC(=O)N1c1ccccc1S2 (centres undefined)
[6]
  T/C: 108 % of control
[7]
  T/C: 104 % of control
[8]
  T/C: 95 % of control

## Oc1cc2c(cc1C(c1ccc(F)cc1)n1ccnc1)OCO2 (centres undefined)
dose: 60.0 mg/kg/injection, schedule: Q01DX005 (ip), vehicle: Klucel (hydroxypropylcellulose) (HPC)
  T/C: 96 % of control
dose: 120.0 mg/kg/injection, schedule: Q01DX005 (ip), vehicle: Klucel (hydroxypropylcellulose) (HPC)
  T/C: 94 % of control
dose: 240.0 mg/kg/injection, schedule: Q01DX005 (ip), vehicle: Klucel (hydroxypropylcellulose) (HPC)
  T/C: 91 % of control

## O=C(c1ccccc1)N1C2C=C(c3ccccc3)CC1CC2 (centres undefined)
[13]
  T/C: 111 % of control
[14]
  T/C: 97 % of control
[15]
  T/C: 94 % of control
